The values that follow come from US20230365590A1, “BIPHENYL COMPOUND AS IMMUNOMODULATOR, PREPARATION METHOD THEREFOR AND APPLICATION THEREOF” (SHENZHEN CHIPSCREEN BIOSCIENCES CO., LTD., priority 2020, published 2023).

Data set [1] is described as follows: Single-dosing pharmacokinetics test. It is filed as in vivo, B-hPD-1/hPD-L1 female mice. The note with it: female, B-hPD-1/hPD-L1 (humanized), mouse, po; humanized mice, single dose of 100 mg/kg by gavage, plasma. As to the method:
24 6-week old B-hPD-1/hPD-L1 female mice (purchased from Biocytogen (Jiangsu) Gene Biotechnology Co., Ltd.) were taken and the test compound was dissolved in a solvent containing 5% DMSO, 60% PEG400 and 35% purified water. The compound I-6 and three control molecules, Example 17, Compound 14 (INCB086550) and Example 180 were dosed. The compound was administered by gavage in a single dose of 100 mg/kg and blood was collected through fundus vein plexus after administration. The time points for blood collection were 15 min, 30 min, 1 h, 2 h, 4 h, 8 h, 24 h, 32 h and 48 h. About 0.1 mL of blood was collected and centrifuged in a centrifuge tube (heparin sodium anticoagulation) at 5000 rpm for 5 min to separate plasma, and then frozen at −20° C. for testing. After the plasma sample was treated, the concentration of the compound in the plasma was determined by liquid chromatography-mass spectrometry (LC-MS/MS). The pharmacokinetic parameters were calculated using Phoenix WinNonlin 7.0 based on the average blood concentration data at different time points.

A short description of data set [2]: Repeated-dosing pharmacokinetics test. It is filed as in vivo, B-hPD-1/hPD-L1 humanized female mice. Particulars: female, B-hPD-1/hPD-L1 (humanized), mouse, po; humanized mice, 50 mg/kg by gavage once a day for 12 days, plasma on day 12. Here is the method:
24 6-week old B-hPD-1/hPD-L1 humanized female mice (purchased from Biocytogen (Jiangsu) Gene Biotechnology Co., Ltd.) were taken and the test compound was dissolved in a solvent containing 5% DMSO, 60% PEG400 and 35% purified water. The compound I-6 and three control molecules, Example 17, Compound 14 (INCB086550) and the aforementioned Example 180 were dosed. The compound was administered by gavage once a day in a dose of 50 mg/kg for 12 consecutive days, and blood was alternately collected through fundus vein plexus on day 12 of administration. The time points for blood collection were 15 min, 30 min, 1 h, 2 h, 4 h, 8 h, 24 h, 32 h and 48 h. About 0.1 mL of blood was collected and centrifuged in a centrifuge tube (heparin sodium for anticoagulation) at 5000 rpm for 5 min to separate plasma, and then frozen at −20° C. for testing. The concentration of the compound in the plasma was determined by liquid chromatography-mass spectrometry (LC-MS/MS). The pharmacokinetic parameters were calculated using Phoenix WinNonlin 7.0 based on the average blood concentration data at different time points.

The term AUC(0-t) denotes exposure summed from dosing to a finite time, without extrapolation to infinity. Read a low AUC(0-t) as low exposure. Broadly, the MRT is the average time that molecules of a dose stay in the body. A word on the half-life: it is the time in which the quantity being followed falls by half. With `COCC12CCC(CCN3CCc4c(nc(C(=O)Nc5cccc(-c6cccc(NC(=O)c7nc8c(n7C)CCN(CCC79CCC(C(=O)O)(CC7)C9)C8)c6Cl)c5Cl)n4C)C3)(CC1)C2` [Compound I-6, 4-(2-(2-((2,2′-dichloro-3′-(5-(2-(4-(methoxymethyl)bicyclo[2.2.1]heptan-1-yl)ethyl)-1-methyl-4,5,6,7-tetrahydro-1H-imidazo[4,5-c]pyridine-2-carboxamido)-[1, 1′-biphenyl]-3-yl)carbamoyl)-1-methyl-1,4,6,7-tetrahydro-5H-imidazo[4,5-c]pyridin-5-yl)ethyl)bicyclo[2.2.1]heptane-1-carboxylic acid], in data set [1], the area under the curve AUC(0-t) stood at 207000 ng·h/mL, the mean residence time MRT amounted to 10.9 h and the half-life is 9.3 h. Further, in data set [2], the exposure AUC(0-t) is 151000 ng·h/mL, the MRT came to 12 h and the half-life is 9.4 h.

In data set [1], `Cn1c(C(=O)Nc2cccc(-c3cccc(NC(=O)c4nc5c(n4C)CCN(CC46CCC(C(=O)O)(CC4)C6)C5)c3Cl)c2Cl)nc2c1CCN(CCO)C2` [Example 180] had an exposure AUC(0-t) of 45400 ng·h/mL, an MRT of 4.7 h and a half-life of 3.5 h. In data set [2], this molecule gave an exposure AUC(0-t) of 27800 ng·h/mL, an MRT of 4.2 h and a half-life of 3.3 h.
